The values that follow come from US20250186541A1, “DLL3 TARGETING PEPTIDES AND CONSTRUCTS THEREOF” (MARIANA ONCOLOGY INC., priority 2023, published 2025).

Bridge positions count the residues as written; N and C are the ends. Square brackets hold non-standard residues; d marks the D form. Peptide text beside a SMILES is read from it. * marks the point of attachment. DOTA = O=C(O)CN1CCN(CC(=O)O)CCN(CC(=O)*)CCN(CC(=O)O)CC1; Phe(4-CF3) = N[C@@H](Cc1ccc(C(F)(F)F)cc1)C(=O)O; Phe(4-COOH) = N[C@@H](Cc1ccc(C(=O)O)cc1)C(=O)O; Pro(trans-4-F) = O=C(O)[C@@H]1C[C@@H](F)CN1; Bip = N[C@@H](Cc1ccc(-c2ccccc2)cc1)C(=O)O; Phe(3-F) = N[C@@H](Cc1cccc(F)c1)C(=O)O; Phe(4-F) = N[C@@H](Cc1ccc(F)cc1)C(=O)O; 1Nal = N[C@@H](Cc1cccc2ccccc12)C(=O)O; 2Nal = N[C@@H](Cc1ccc2ccccc2c1)C(=O)O; Carboxymethyl = O=C(O)C*; Nva = CCC[C@H](N)C(=O)O; Ahx = NCCCCCC(=O)O

The target of the assay is T1, human DLL3 (Homo sapiens, UniProt Q9NYJ7).
T1 construct: biotin (biotinylated)
T1 sequence (Q9NYJ7 27-618): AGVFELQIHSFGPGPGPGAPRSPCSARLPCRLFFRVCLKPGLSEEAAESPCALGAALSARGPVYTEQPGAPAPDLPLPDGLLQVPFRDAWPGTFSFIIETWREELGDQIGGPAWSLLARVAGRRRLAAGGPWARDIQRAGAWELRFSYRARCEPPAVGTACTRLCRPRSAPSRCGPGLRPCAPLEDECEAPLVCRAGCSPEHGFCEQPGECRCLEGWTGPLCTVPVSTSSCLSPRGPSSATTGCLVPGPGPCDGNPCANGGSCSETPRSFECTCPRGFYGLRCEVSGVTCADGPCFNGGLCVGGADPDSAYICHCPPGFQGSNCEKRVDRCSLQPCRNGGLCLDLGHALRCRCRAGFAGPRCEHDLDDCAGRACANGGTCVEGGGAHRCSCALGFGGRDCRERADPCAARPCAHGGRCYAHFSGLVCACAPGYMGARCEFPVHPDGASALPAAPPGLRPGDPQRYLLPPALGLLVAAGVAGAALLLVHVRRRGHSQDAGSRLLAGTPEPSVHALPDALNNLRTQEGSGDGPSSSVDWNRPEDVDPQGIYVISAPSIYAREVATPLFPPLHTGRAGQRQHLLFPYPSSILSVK
In words: Affinity determination by Surface Plasmon Resonance (SPR), Biacore, 1:1 binding model. The settings on record: biotinylated human DLL3 on streptavidin chip, 25° C.; NB = nonbinding. A digest of the protocol:
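SPR with biotinylated human DLL3 captured on a streptavidin chip, with a reference surface subtracted. Samples were injected at several concentrations at 100 μL/min in phosphate buffer with 137 mM NaCl, 2.7 mM KCl, 0.05% P20 and 2% DMSO. Kinetic and affinity constants came from a 1:1 binding fit.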
In general terms: In SPR one partner is held on a chip, and binding of the other changes the refractive index at the surface.
As to `CSCC[C@H](NC(C)=O)C(=O)N[C@@H](CO)C(=O)N[C@@H](CC(=O)O)C(=O)N[C@H]1CSSC[C@@H](C(=O)N[C@@H](C)C(=O)N[C@@H](Cc2ccccc2)C(=O)N[C@@H](CC(=O)O)C(N)=O)NC(=O)[C@H](CC(N)=O)NC(=O)[C@H](Cc2c[nH]c3ccccc23)NC(=O)[C@H](CCC(N)=O)NC(=O)[C@H](CC(C)C)NC(=O)[C@H](Cc2c[nH]c3ccccc23)NC1=O` [compound 27, Ac-M-S-D-C(3)-W-L-Q-W-N-C(3)-(L-Ala)-F-D-CONH2] (Ac-MSDCWLQWNCAFD-NH2; disulfide 4-10), the Kd is over 100 nM. As for `CSCC[C@H](NC(C)=O)C(=O)N[C@@H](CO)C(=O)N[C@@H](CC(=O)O)C(=O)N[C@H]1CSSC[C@@H](C(=O)N2CCC[C@H]2C(=O)N[C@@H](C)C(=O)N[C@@H](CC(=O)O)C(N)=O)NC(=O)[C@H](CC(N)=O)NC(=O)[C@H](Cc2c[nH]c3ccccc23)NC(=O)[C@H](CCC(N)=O)NC(=O)[C@H](CC(C)C)NC(=O)[C@H](Cc2c[nH]c3ccccc23)NC1=O` [compound 28, Ac-M-S-D-C(3)-W-L-Q-W-N-C(3)-P-(L-Ala)-D-CONH2] (Ac-MSDCWLQWNCPAD-NH2; disulfide 4-10), the Kd was over 100 nM. As for `CSCC[C@H](NC(C)=O)C(=O)N[C@@H](CO)C(=O)N[C@@H](CC(=O)O)C(=O)N[C@H]1CSSC[C@@H](C(=O)N2CCC[C@H]2C(=O)N[C@@H](Cc2ccccc2)C(=O)N[C@@H](C)C(N)=O)NC(=O)[C@H](CC(N)=O)NC(=O)[C@H](Cc2c[nH]c3ccccc23)NC(=O)[C@H](CCC(N)=O)NC(=O)[C@H](CC(C)C)NC(=O)[C@H](Cc2c[nH]c3ccccc23)NC1=O` [compound 29, Ac-M-S-D-C(3)-W-L-Q-W-N-C(3)-P-F-(L-Ala)-CONH2] (Ac-MSDCWLQWNCPFA-NH2; disulfide 4-10), the figure is over 100 nM; as for `CCC[C@H](NC(C)=O)C(=O)N[C@@H](CO)C(=O)N[C@@H](CC(=O)O)C(=O)N[C@H]1CSSC[C@@H](C(=O)N2CCC[C@H]2C(=O)N[C@@H](Cc2ccccc2)C(=O)N[C@@H](CC(=O)O)C(=O)N[C@H](CCCCNC(=O)CN2CCN(CC(=O)O)CCN(CC(=O)O)CCN(CC(=O)O)CC2)C(N)=O)NC(=O)[C@H](CC(N)=O)NC(=O)[C@H](Cc2c[nH]c3ccccc23)NC(=O)[C@H](CCC(N)=O)NC(=O)[C@H](CC(C)C)NC(=O)[C@H](Cc2c[nH]c3ccccc23)NC1=O` [compound 32, Ac-Nva-S-D-C(3)-W-L-Q-W-N-C(3)-P-F-D-D-Lys(DOTA)-CONH2] (Ac-[Nva]SDCWLQWNCPFD[dK](DOTA)-NH2; disulfide 4-10), 28 nM; as for `CC(C)C[C@@H]1NC(=O)[C@H](Cc2c[nH]c3ccccc23)NC(=O)[C@@H](NC(=O)[C@H](CC(=O)O)NC(=O)[C@H](CO)NC(=O)CCCCCNC(=O)CN2CCN(CC(=O)O)CCN(CC(=O)O)CCN(CC(=O)O)CC2)CSSC[C@@H](C(=O)N2CCC[C@H]2C(=O)N[C@@H](Cc2ccc(F)cc2)C(=O)N[C@@H](CC(=O)O)C(N)=O)NC(=O)[C@H](CC(N)=O)NC(=O)[C@H](Cc2c[nH]c3ccccc23)NC(=O)[C@H](CCC(N)=O)NC1=O` [compound 33, DOTA-Ahx-S-D-C(3)-W-L-Q-W-N-C(3)-P-(4Fluoro-F)-D-CONH2] ({DOTA-Ahx}-SDCWLQWNCP[Phe(4-F)]D-NH2; disulfide 3-9), over 300 nM. For the compound `CC(C)C[C@@H]1NC(=O)[C@H](Cc2c[nH]c3ccccc23)NC(=O)[C@@H](NC(=O)[C@H](CC(=O)O)NC(=O)[C@H](CO)NC(=O)CCCCCNC(=O)CN2CCN(CC(=O)O)CCN(CC(=O)O)CCN(CC(=O)O)CC2)CSSC[C@@H](C(=O)N2CCC[C@H]2C(=O)N[C@@H](Cc2ccc(C(F)(F)F)cc2)C(=O)N[C@@H](CC(=O)O)C(N)=O)NC(=O)[C@H](CC(N)=O)NC(=O)[C@H](Cc2c[nH]c3ccccc23)NC(=O)[C@H](CCC(N)=O)NC1=O` [compound 34, DOTA-Ahx-S-D-C(3)-W-L-Q-W-N-C(3)-P-(4CF3-F)-D-CONH2] ({DOTA-Ahx}-SDCWLQWNCP[Phe(4-CF3)]D-NH2; disulfide 3-9), the Kd is over 300 nM.

For `CC(C)C[C@@H]1NC(=O)[C@H](Cc2c[nH]c3ccccc23)NC(=O)[C@@H](NC(=O)[C@H](CC(=O)O)NC(=O)[C@H](CO)NC(=O)CCCCCNC(=O)CN2CCN(CC(=O)O)CCN(CC(=O)O)CCN(CC(=O)O)CC2)CSSC[C@@H](C(=O)N2CCC[C@H]2C(=O)N[C@@H](Cc2ccc(C(=O)O)cc2)C(=O)N[C@@H](CC(=O)O)C(N)=O)NC(=O)[C@H](CC(N)=O)NC(=O)[C@H](Cc2c[nH]c3ccccc23)NC(=O)[C@H](CCC(N)=O)NC1=O` [compound 35, DOTA-Ahx-S-D-C(3)-W-L-Q-W-N-C(3)-P-(4COOH-F)-D-CONH2] ({DOTA-Ahx}-SDCWLQWNCP[Phe(4-COOH)]D-NH2; disulfide 3-9), the Kd is over 100 nM.

For `CC(C)C[C@@H]1NC(=O)[C@H](Cc2c[nH]c3ccccc23)NC(=O)[C@@H](NC(=O)[C@H](CC(=O)O)NC(=O)[C@H](CO)NC(=O)CCCCCNC(=O)CN2CCN(CC(=O)O)CCN(CC(=O)O)CCN(CC(=O)O)CC2)CSSC[C@@H](C(=O)N2CCC[C@H]2C(=O)N[C@@H](Cc2cccc(F)c2)C(=O)N[C@@H](CC(=O)O)C(N)=O)NC(=O)[C@H](CC(N)=O)NC(=O)[C@H](Cc2c[nH]c3ccccc23)NC(=O)[C@H](CCC(N)=O)NC1=O` [compound 36, DOTA-Ahx-S-D-C(3)-W-L-Q-W-N-C(3)-P-(3Fluoro-F)-D-CONH2] ({DOTA-Ahx}-SDCWLQWNCP[Phe(3-F)]D-NH2; disulfide 3-9), the Kd was 16 nM. In the case of `CC(C)C[C@@H]1NC(=O)[C@H](Cc2c[nH]c3ccccc23)NC(=O)[C@@H](NC(=O)[C@H](CC(=O)O)NC(=O)[C@H](CO)NC(=O)CCCCCNC(=O)CN2CCN(CC(=O)O)CCN(CC(=O)O)CCN(CC(=O)O)CC2)CSSC[C@@H](C(=O)N2CCC[C@H]2C(=O)N[C@@H](Cc2ccc(OCC(=O)O)cc2)C(=O)N[C@@H](CC(=O)O)C(N)=O)NC(=O)[C@H](CC(N)=O)NC(=O)[C@H](Cc2c[nH]c3ccccc23)NC(=O)[C@H](CCC(N)=O)NC1=O` [compound 37, DOTA-Ahx-S-D-C(3)-W-L-Q-W-N-C(3)-P-(4-CMF)-D-CONH2] ({DOTA-Ahx}-SDCWLQWNCPY(Carboxymethyl)D-NH2; disulfide 3-9) it was over 100 nM; in that of `CC(C)C[C@@H]1NC(=O)[C@H](Cc2c[nH]c3ccccc23)NC(=O)[C@@H](NC(=O)[C@H](CC(=O)O)NC(=O)[C@H](CO)NC(=O)CCCCCNC(=O)CN2CCN(CC(=O)O)CCN(CC(=O)O)CCN(CC(=O)O)CC2)CSSC[C@@H](C(=O)N2CCC[C@H]2C(=O)N[C@@H](Cc2ccc(-c3ccccc3)cc2)C(=O)N[C@@H](CC(=O)O)C(N)=O)NC(=O)[C@H](CC(N)=O)NC(=O)[C@H](Cc2c[nH]c3ccccc23)NC(=O)[C@H](CCC(N)=O)NC1=O` [compound 38, DOTA-Ahx-S-D-C(3)-W-L-Q-W-N-C(3)-P-(BIP)-D-CONH2] ({DOTA-Ahx}-SDCWLQWNCP[Bip]D-NH2; disulfide 3-9), over 300 nM; in that of `CC(C)C[C@@H]1NC(=O)[C@H](Cc2c[nH]c3ccccc23)NC(=O)[C@@H](NC(=O)[C@H](CC(=O)O)NC(=O)[C@H](CO)NC(=O)CCCCCNC(=O)CN2CCN(CC(=O)O)CCN(CC(=O)O)CCN(CC(=O)O)CC2)CSSC[C@@H](C(=O)N2CCC[C@H]2C(=O)N[C@@H](Cc2cccc3ccccc23)C(=O)N[C@@H](CC(=O)O)C(N)=O)NC(=O)[C@H](CC(N)=O)NC(=O)[C@H](Cc2c[nH]c3ccccc23)NC(=O)[C@H](CCC(N)=O)NC1=O` [compound 39, DOTA-Ahx-S-D-C(3)-W-L-Q-W-N-C(3)-P-(1Nal)-D-CONH2] ({DOTA-Ahx}-SDCWLQWNCP[1Nal]D-NH2; disulfide 3-9), over 100 nM. As for `CC(C)C[C@@H]1NC(=O)[C@H](Cc2c[nH]c3ccccc23)NC(=O)[C@@H](NC(=O)[C@H](CC(=O)O)NC(=O)[C@H](CO)NC(=O)CCCCCNC(=O)CN2CCN(CC(=O)O)CCN(CC(=O)O)CCN(CC(=O)O)CC2)CSSC[C@@H](C(=O)N2CCC[C@H]2C(=O)N[C@@H](Cc2ccc3ccccc3c2)C(=O)N[C@@H](CC(=O)O)C(N)=O)NC(=O)[C@H](CC(N)=O)NC(=O)[C@H](Cc2c[nH]c3ccccc23)NC(=O)[C@H](CCC(N)=O)NC1=O` [compound 40, DOTA-Ahx-S-D-C(3)-W-L-Q-W-N-C(3)-P-(2Nal)-D-CONH2] ({DOTA-Ahx}-SDCWLQWNCP[2Nal]D-NH2; disulfide 3-9), the figure is over 300 nM; as for `CSCC[C@H](NC(C)=O)C(=O)N[C@@H](CO)C(=O)N[C@@H](CC(=O)O)C(=O)N[C@H]1CSSC[C@@H](C(=O)N2C[C@H](F)C[C@H]2C(=O)N[C@@H](Cc2ccccc2)C(=O)N[C@@H](CC(=O)O)C(=O)N[C@H](CCCCNC(=O)CN2CCN(CC(=O)O)CCN(CC(=O)O)CCN(CC(=O)O)CC2)C(N)=O)NC(=O)[C@H](CC(N)=O)NC(=O)[C@H](Cc2c[nH]c3ccccc23)NC(=O)[C@H](CCC(N)=O)NC(=O)[C@H](CC(C)C)NC(=O)[C@H](Cc2c[nH]c3ccccc23)NC1=O` [compound 42, Ac-M-S-D-C(3)-W-L-Q-W-N-C(3)-(trans4Fluoro-P)-F-D-D-Lys(DOTA)-CONH2] (Ac-MSDCWLQWNC[Pro(trans-4-F)]FD[dK](DOTA)-NH2; disulfide 4-10), 10 nM.

The term Kd denotes the concentration at which binding is half-saturated. A lower Kd goes with higher affinity.
